Our source for the Ki values is patent US20250122183A1 (Pfizer Inc., priority 2023, published 2025).

Type in all cases: biochemical
The target of test [1] is KAT7+JADE1+EAF6+ING5 4 protein complex (Homo sapiens (Human), UniProt O95251). The test can be described thus: KAT7 JADE1 assay (SAMDI-MS acetylation of H3 1-21 peptide). The note with it: Morrison equation fit; replicate number in parentheses; read-out: KAT7 JADE1 Ki (nM) (replicate number).
A further test concerns the target KAT5 Full length enzyme (Homo sapiens (Human), UniProt Q92993). Kind of test: KAT5 assay (SAMDI-MS acetylation of H4 1-21 peptide). The note with it: Morrison equation fit; replicate number in parentheses; read-out: KAT5 Ki (nM) (replicate number).
The next test addresses KAT6A Full length enzyme (Homo sapiens (Human), UniProt Q92794). The test can be described thus: KAT6A assay (SAMDI-MS acetylation of H3 1-21 peptide). Particulars: Morrison equation fit; replicate number in parentheses; read-out: KAT6A Ki (nM) (replicate number).
The next test has as its target KAT8 Full length enzyme (Homo sapiens (Human), UniProt Q9H7Z6). The test can be described thus: KAT8 assay (SAMDI-MS acetylation of H3 1-21 peptide). Particulars: Morrison equation fit; replicate number in parentheses; read-out: KAT8 Ki (nM) (replicate number).
In test [2] the target is KAT7+BRPF1+EAF6+ING5 4 protein complex (Homo sapiens (Human), UniProt O95251). Kind of test: KAT7 BRPF1 assay (SAMDI-MS acetylation of H3 1-21 peptide). The note with it: Morrison equation fit; replicate number in parentheses.
Test [3] deals with KAT7+BRPF2+EAF6+ING5 4 protein complex (Homo sapiens (Human), UniProt O95251). Kind of test: KAT7 BRPF2 assay (SAMDI-MS acetylation of H3 1-21 peptide). Particulars: Morrison equation fit; replicate number in parentheses; read-out: KAT7 BRPF2 Ki (nM) (replicate number).

KAT8 Full length enzyme, sequence (Q9H7Z6 whole entry): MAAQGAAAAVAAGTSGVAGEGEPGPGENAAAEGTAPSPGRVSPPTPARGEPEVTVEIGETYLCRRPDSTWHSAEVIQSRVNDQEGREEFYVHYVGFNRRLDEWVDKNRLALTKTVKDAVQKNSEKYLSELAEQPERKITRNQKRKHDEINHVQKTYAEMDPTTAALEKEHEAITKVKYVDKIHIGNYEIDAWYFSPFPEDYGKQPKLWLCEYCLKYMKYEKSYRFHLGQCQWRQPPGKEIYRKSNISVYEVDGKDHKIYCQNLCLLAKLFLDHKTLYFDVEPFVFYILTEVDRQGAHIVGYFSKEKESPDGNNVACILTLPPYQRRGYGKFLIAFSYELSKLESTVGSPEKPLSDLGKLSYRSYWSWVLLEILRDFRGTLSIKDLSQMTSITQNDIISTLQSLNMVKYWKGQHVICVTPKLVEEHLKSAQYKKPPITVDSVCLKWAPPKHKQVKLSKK
KAT6A Full length enzyme, sequence (Q92794 other isoform, or with tags, fused parts or gaps): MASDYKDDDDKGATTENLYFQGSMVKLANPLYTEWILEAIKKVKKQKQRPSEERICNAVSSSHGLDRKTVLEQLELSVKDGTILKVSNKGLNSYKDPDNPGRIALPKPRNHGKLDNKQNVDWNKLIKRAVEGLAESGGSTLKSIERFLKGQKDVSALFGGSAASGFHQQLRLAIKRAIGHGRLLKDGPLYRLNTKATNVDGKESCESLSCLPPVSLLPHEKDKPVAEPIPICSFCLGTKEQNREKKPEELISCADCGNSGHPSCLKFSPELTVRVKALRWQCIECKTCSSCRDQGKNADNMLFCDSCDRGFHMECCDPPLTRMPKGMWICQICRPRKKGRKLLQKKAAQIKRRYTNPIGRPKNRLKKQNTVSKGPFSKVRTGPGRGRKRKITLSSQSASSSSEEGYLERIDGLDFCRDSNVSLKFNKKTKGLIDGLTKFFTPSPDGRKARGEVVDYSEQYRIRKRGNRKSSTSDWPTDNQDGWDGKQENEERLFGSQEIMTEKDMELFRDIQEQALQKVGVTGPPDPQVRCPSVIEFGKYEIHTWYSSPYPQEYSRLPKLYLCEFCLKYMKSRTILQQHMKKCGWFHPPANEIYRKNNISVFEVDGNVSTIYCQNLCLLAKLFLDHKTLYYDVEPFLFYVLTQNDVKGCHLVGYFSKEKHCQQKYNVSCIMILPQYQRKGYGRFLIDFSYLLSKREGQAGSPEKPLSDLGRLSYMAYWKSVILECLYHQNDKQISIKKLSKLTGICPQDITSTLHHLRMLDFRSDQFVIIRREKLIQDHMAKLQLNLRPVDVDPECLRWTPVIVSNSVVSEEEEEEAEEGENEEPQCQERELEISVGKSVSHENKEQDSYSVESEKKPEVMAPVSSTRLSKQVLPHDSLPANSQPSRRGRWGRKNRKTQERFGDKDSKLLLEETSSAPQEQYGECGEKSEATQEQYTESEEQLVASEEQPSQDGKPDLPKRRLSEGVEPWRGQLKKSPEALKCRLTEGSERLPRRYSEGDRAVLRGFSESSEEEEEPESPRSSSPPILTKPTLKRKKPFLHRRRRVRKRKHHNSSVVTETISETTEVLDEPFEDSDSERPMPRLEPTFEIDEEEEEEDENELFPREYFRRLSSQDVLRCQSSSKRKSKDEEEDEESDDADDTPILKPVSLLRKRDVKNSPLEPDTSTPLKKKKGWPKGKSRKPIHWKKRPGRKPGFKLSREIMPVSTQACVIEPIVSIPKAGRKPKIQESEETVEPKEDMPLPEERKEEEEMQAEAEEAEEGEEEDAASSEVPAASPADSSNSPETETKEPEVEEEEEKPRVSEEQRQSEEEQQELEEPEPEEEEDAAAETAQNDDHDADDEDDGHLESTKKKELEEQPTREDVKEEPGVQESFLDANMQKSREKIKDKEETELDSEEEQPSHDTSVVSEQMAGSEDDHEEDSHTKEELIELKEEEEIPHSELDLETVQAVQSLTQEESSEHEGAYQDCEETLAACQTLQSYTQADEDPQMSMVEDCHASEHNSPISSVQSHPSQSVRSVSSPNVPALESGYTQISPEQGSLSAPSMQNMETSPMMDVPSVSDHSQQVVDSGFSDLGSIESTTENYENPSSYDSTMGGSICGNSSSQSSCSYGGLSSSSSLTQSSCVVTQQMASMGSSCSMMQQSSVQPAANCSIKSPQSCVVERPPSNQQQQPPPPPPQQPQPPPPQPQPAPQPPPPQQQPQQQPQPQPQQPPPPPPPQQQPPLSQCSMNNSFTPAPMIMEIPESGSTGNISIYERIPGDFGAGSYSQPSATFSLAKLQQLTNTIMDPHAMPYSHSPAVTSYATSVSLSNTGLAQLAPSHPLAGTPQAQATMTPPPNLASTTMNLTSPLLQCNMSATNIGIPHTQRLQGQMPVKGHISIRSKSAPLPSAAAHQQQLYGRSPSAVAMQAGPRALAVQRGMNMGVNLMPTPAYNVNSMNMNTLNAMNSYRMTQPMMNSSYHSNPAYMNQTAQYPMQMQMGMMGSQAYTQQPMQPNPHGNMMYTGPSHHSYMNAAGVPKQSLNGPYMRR
KAT5 Full length enzyme, sequence (Q92993 whole entry): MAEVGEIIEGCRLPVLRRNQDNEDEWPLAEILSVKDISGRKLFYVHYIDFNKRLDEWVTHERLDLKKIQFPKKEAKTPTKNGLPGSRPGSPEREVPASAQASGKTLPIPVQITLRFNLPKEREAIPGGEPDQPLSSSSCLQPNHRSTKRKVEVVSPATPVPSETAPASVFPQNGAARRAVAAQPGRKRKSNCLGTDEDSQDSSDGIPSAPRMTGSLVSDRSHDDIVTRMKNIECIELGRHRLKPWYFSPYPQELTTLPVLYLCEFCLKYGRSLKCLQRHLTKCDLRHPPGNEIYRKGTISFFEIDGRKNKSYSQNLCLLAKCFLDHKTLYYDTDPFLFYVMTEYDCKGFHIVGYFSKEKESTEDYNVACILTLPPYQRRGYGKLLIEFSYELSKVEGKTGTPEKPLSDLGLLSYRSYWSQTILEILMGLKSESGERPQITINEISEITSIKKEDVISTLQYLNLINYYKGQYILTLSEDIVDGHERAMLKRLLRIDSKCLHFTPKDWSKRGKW

Broadly, the Ki is a measure of affinity in units of concentration, obtained from inhibition or displacement. As for `COc1cccc(OC)c1S(=O)(=O)Nc1noc2cc(Nc3cc[nH]n3)cc(OC)c12` [Example 01, 2,6-Dimethoxy-N-{4-methoxy-6-[(1H-pyrazol-3-yl)amino]-1,2-benzoxazol-3-yl}benzene-1-sulfonamide], the Ki in test [1] came out at 131 nM; on KAT5 Full length enzyme, 441 nM; on KAT6A Full length enzyme it was 0.4 nM; at KAT8 Full length enzyme, 455 nM; in test [2] it was 37.7 nM; in test [3], 37 nM.
In the case of `CCc1cc(Nc2cc3onc(NS(=O)(=O)c4c(OC)cccc4OC)c3cc2OC)[nH]n1` [Example 02, N-{6-[(3-ethyl-1H-pyrazol-5-yl)amino]-5-methoxy-1,2-benzoxazol-3-yl}-2,6-dimethoxybenzene-1-sulfonamide], the Ki turned out to be 19.5 nM in test [1]; 305 nM on KAT5 Full length enzyme; 1.1 nM on KAT6A Full length enzyme; 2270 nM on KAT8 Full length enzyme; 3.5 nM in test [2]; 4.8 nM in test [3].
In the case of `COc1cc2c(NS(=O)(=O)c3c(OC)cccc3OC)noc2cc1Nc1cc[nH]n1` [Example 03, 2,6-Dimethoxy-N-{5-methoxy-6-[(1H-pyrazol-3-yl)amino]-1,2-benzoxazol-3-yl}benzene-1-sulfonamide], the Ki turned out to be 105 nM in test [1]; 138 nM on KAT5 Full length enzyme; 0.5 nM on KAT6A Full length enzyme; 861 nM at KAT8 Full length enzyme; 40.6 nM in test [2]; 43.6 nM in test [3].
`COc1cc2c(NS(=O)(=O)c3c(OC)cccc3OC)noc2cc1Nc1ccn(C)n1` [Example 04, 2,6-Dimethoxy-N-{5-methoxy-6-[(1-methyl-1H-pyrazol-3-yl)amino]-1,2-benzoxazol-3-yl}benzene-1-sulfonamide]: the Ki in test [1] amounted to 251 nM; at KAT5 Full length enzyme, 367 nM; at KAT6A Full length enzyme, 0.7 nM; at KAT8 Full length enzyme it was 1230 nM; in test [2], 67.2 nM; in test [3], 57.2 nM.
As to `COc1cc2c(NS(=O)(=O)c3ccccc3OC)noc2cc1Nc1cc(C)n[nH]1` [Example 06, 2-Methoxy-N-{5-methoxy-6-[(3-methyl-1H-pyrazol-5-yl)amino]-1,2-benzoxazol-3-yl}benzene-1-sulfonamide], the Ki in test [1] is 148 nM; at KAT5 Full length enzyme, 300 nM; on KAT6A Full length enzyme, 0.8 nM; on KAT8 Full length enzyme, above 13000 nM; in test [2], 47.1 nM; in test [3] it was 50.5 nM.
On to `COc1ccccc1S(=O)(=O)Nc1noc2cc(Nc3cc[nH]n3)cc(OC)c12` [Example 09, 2-methoxy-N-{4-methoxy-6-[(1H-pyrazol-3-yl)amino]-1,2-benzoxazol-3-yl}benzene-1-sulfonamide], for which the inhibition constant (Ki) in test [1] is 202 nM; on KAT5 Full length enzyme, 642 nM; at KAT6A Full length enzyme it was 0.8 nM; at KAT8 Full length enzyme, 1190 nM; in test [2] it was 51.8 nM; in test [3] it was 90.7 nM.
For `COc1cccc(OC)c1S(=O)(=O)Nc1noc2cc(Nc3ncc[nH]3)cc(OC)c12` [Example 15, N-{6-[(1H-imidazol-2-yl)amino]-4-methoxy-1,2-benzoxazol-3-yl}-2,6-dimethoxybenzene-1-sulfonamide], the Ki in test [1] was 256 nM; at KAT5 Full length enzyme, 1330 nM; on KAT6A Full length enzyme it was 1.2 nM; on KAT8 Full length enzyme, 1320 nM; in test [2], 67.8 nM; in test [3], 100 nM.
Turning to `COc1cc2c(NS(=O)(=O)c3ccccc3OC)noc2cc1Nc1cc[nH]n1` [Example 22, 2-methoxy-N-{5-methoxy-6-[(1H-pyrazol-3-yl)amino]-1,2-benzoxazol-3-yl}benzene-1-sulfonamide], the Ki in test [1] stood at 300 nM; on KAT5 Full length enzyme, 488 nM; on KAT6A Full length enzyme it was 0.9 nM; on KAT8 Full length enzyme, 1700 nM; in test [2], 108 nM; in test [3], 186 nM.
